In publication PMC7957578, “N-(1,3,4-Oxadiazol-2-yl)Benzamides as Antibacterial Agents against Neisseria gonorrhoeae” (International Journal of Molecular Sciences, 2021):
Values after ≈ are worked out from the molar mass of the structure shown.

Tests used:
N. gonorrhoeae WHO L = experiment: MIC/MBC against N. gonorrhoeae WHO L reference strain; assay type: cell-based; conditions: Neisseria gonorrhoeae
Procedure: Briefly, bacteria were grown overnight on chocolate agar II at 37° C in the presence of 5% CO2. Afterwards, a bacterial suspension equivalent to 1.0 McFarland standard was prepared and diluted in brucella broth supplemented with yeast extract, neopeptone, hematin, pyridoxal, and NAD. Test agents were added in the first row of the 96-well plates and serially diluted along the plates. Plates were then incubated at 37° C in the presence of 5% CO2 for 24 h. […] Plates were then incubated at 37 ° C in the presence of 5% CO2 for 24 h. The MBC was categorized as the lowest concentration that reduced bacterial growth by 99.9% [45, 46, 47].

[1] = test system: L. monocytogenes ATCC 19115; experiment: MIC/MBC (CLSI broth microdilution) against L. monocytogenes ATCC 19115; assay type: cell-based; conditions: Listeria monocytogenes, ATCC19115, L. monocytogenes ATCC 19115
MRSA USA300 = experiment: MIC/MBC (CLSI broth microdilution) against MRSA USA300; assay type: cell-based, methicillin-resistant Staphylococcus aureus; conditions: Staphylococcus aureus, MRSA USA300
Procedure: (§1) The minimum inhibitory concentrations (MICs) of the tested compounds and control drugs, linezolid, vancomycin, and gentamicin, were determined using the broth microdilution method according to the guidelines outlined by the Clinical and Laboratory Standards Institute (CLSI) against clinically relevant bacterial (Staphylococcus aureus, MRSA, Escherichia coli, Enterococcus faecalis and Enterococcus faecium strains. S. aureus, MRSA, E. coli, Enterococcus faecalis and Enterococcus faecium were grown aerobically overnight on tryptone soy agar (TSA) plates at 37° C. Afterwards, a bacterial solution equivalent to 0.5 McFarland standard was prepared and diluted in cation-adjusted Mueller–Hinton broth (CAMHB) (for S. aureus, MRSA, and E. coli) to achieve a bacterial concentration of about 5 × 10^5 CFU/mL. Enterococcus faecalis and Enterococcus faecium 0.5 McFarland standard solution was diluted in tryptone soy broth (TSB) to achieve a bacterial concentration of about 5 × 10^5 CFU/mL. Compounds and control drugs were added in the first row of 96-well plates and serially diluted with the corresponding media containing bacteria. Plates were then incubated as previously described. […] The minimum bactericidal concentration (MBC) was tested by spotting 4 µL from wells with no growth onto TSA plates. Plates were incubated at 37 ° C for at least 18 h before recording the MBC. The MBC was categorized as the lowest concentration that reduced bacterial growth by 99.9% [45, 46, 47].

VRE. faecium ATCC 700221 = experiment: MIC/MBC (CLSI broth microdilution) against VRE faecium ATCC 700221; assay type: cell-based; conditions: Enterococcus, VRE faecium ATCC 700221
Procedure: as §1

Caco-2 bilayers = experiment: Caco-2 bidirectional permeability assay; assay type: in vitro ADME, human; conditions: Caco-2 permeability classification
Description: (§2) Oral bioavailability is a highly important consideration when developing bioactive molecules as therapeutic agents. A critical factor of oral bioavailability is human intestinal absorption. The Caco-2 bidirectional permeability assay is the most widely used in vitro model for predicting if a bioactive molecule can have adequate systemic absorption. Thus, we selected HSGN-238 to act as a model to analyze the drug-like properties of newly synthesized N-(1,3,4-oxadiazol-2-yl)benzamides.
(§3) Assay and data analysis were performed by Eurofins Panlabs (MO, USA) according to a previously reported protocol. The apparent permeability coefficient (Papp) of the tested agents was calculated using the equation below: Papp(cm/s)=VR∗CR,end/Δt∗1/A∗(CD,mid−CR,mid), where VR is the volume of the receiver chamber. CR,end is the concentration of the test compound in the receiver chamber at the end time point, Δt is the incubation time, and A is the surface area of the cell monolayer. CD,mid is the calculated mid-point concentration of the test compound in the donor side, which is the mean value of the donor concentration at 0 minutes and the donor concentration at the end time point. CR,mid is the mid-point concentration of the test compound in the receiver side, which is one half of the receiver concentration at the end time point. Concentrations of the test compound were expressed as peak areas of the test compound.

[2] = Caco-2 bidirectional permeability assay; assay type: in vitro ADME, human; conditions: human, Caco-2
Description: as §2, §3

## O=C(Nc1nnc(-c2ccc(Cl)s2)o1)c1ccc(OC(F)(F)F)cc1 [HSGN-238, N-(5-(5-Chlorothiophen-2-yl)-1,3,4-oxadiazol-2-yl)-4-(trifluoromethoxy)benzamide]
N. gonorrhoeae WHO L
  MBC: 0.125 µg/mL (≈ 0.321 µM)
  MIC: 0.06 µg/mL (≈ 0.154 µM)
[1]; read-out: MBC
  MBC: 32 µg/mL (≈ 82.1 µM)
[1]; read-out: MIC
  MIC: 0.5 µg/mL (≈ 1.28 µM)
MRSA USA300; read-out: MBC
  MBC: 16 µg/mL (≈ 41.1 µM)
MRSA USA300; read-out: MIC
  MIC: 0.25 µg/mL (≈ 0.641 µM)
VRE. faecium ATCC 700221; read-out: MBC
  MBC: 8 µg/mL (≈ 20.5 µM)
VRE. faecium ATCC 700221; read-out: MIC
  MIC: 0.25 µg/mL (≈ 0.641 µM)
Caco-2 bilayers
  Notes (permeability class): High Permeability
[2]; apical to basolateral
  Papp A→B: 82.3 ×10⁻⁶ cm/s
[2]; basolateral to apical
  Papp B→A: 32.9 ×10⁻⁶ cm/s
